# Measurements taken from patent publication US20030130200A1, “Small peptides and methods for treatment of asthma and inflammation” (Hisatek, LLC, priority 1997, published 2003).
# “Also recorded” adds a separate entry of the source. Where no end group is shown, it is not given here. The star is where a group is joined. For = O=C*
# Test system: OVA-induced asthmatic mice
# Test: OVA-induced bronchial asthma mouse model, Standard/Resolution protocols, drug before each i.n. challenge
# Format: in vivo, mouse (female BALB/c)
# From the text: The OVA-Induced Bronchial Asthma Mouse Model for Inhibition of Mast Cell Degranulation
# Reagents: Crystalline OVA was obtained from Pierce Chem. Co. (Rockford, Ill.) aluminum potassium sulfate (alum) from Sigma Chem. Co. (St. Louis, Mo.), pyrogen-free distilled water from Baxter, Healthcare Corporation (Deerfield, Ill.), 0.9% sodium chloride (normal saline) from Lymphomed (Deerfield, Ill.) and Trappsol™ HPB-L100 (aqueous hydroxypropyl beta cyclodextrin; 45 wt/vol % aqueous solution) from Cyclodextrin Technologies Development, Inc. (Gainesville, Fla.). The OVA (500 μg/ml in normal saline) was mixed with equal volumes of 10% (wt/vol) alum in distilled water. The mixture (pH 6.5 using 10 N NaOH) after incubation for 60 minutes at room temperature underwent centrifugation at 750 g for 5 minutes; the pellet was resuspended to the original volume in distilled water and used within one hour.
# The selective 5-lipoxtgenase inhibitor, Zileuton (N-[1-benzo[b]thien-2-ylethyl]-N-hydroxyurea; J. Pharmacol Exp Ther. 1991; 256: 929-937), was kindly provided by Drs. Bell and George W. Carter (Abbott Laboratories, Abbott Part, Ill.). Zileuton was dissolved in Trappsol.™. Histatek, Inc. (Seattle, Wash.) provided the mast cell degranulation inhibitor, f-Met-Leu-Phe-Phe (“HK-X”).
# Female BALB/c […] (6-8 wk of age at purchase; D and K, Seattle Wash.) were housed under conventional conditions for the studies.
# Allergen Immunization/Challenge Protocols: Mice received an i.p. injection of 0.2 ml (100 μg) of OVA with alum on the different protocols of Standard (FIG. 5A) and Resolution (FIG. 5B) (J. Exp Med. 1996; 184: 1483-1494). According to the different protocols, mice were anesthetized with 0.2 ml i.p. of ketamine (0.44 mg/ml)/xylazine (6.3 mg/ml) in normal saline before receiving an intranasal (i.n.) does of 100 μg OVA in 0.05 ml normal saline and an i.n. dose of 50 μg OVA in 0.05 ml normal saline separately on different days. Two control groups were used. Accordingly, the first group received normal saline with alum i.p. and normal saline without alum i.n.; the second group received OVA with alum i.p., OVA without alum i.n., and normal saline, alone.
# The trachea and left lung (the right lung is used for bronchoalveolar lavage (“BAL”)) were obtained and fixed in 10% neutral formaldehyde solution at room temperature for 6˜15h. After being embedded in paraffin, the tissues were cut into 5-um sections and processed with the different staining or immunolabling further. Discombe's eosinophil staining was used for counting the cell numbers with the counterstain of methylene blue. The eosinophil number per unit airway area (2,200 μm^2) was determined by morphometry (J. Pathol. 1992; 166: 395-404; Am Rev Respir Dis. 1993; 147:448-456). Fibrosis was identified with the Masson's trichrome staining. Airway mucus was identified by the following staining method: methylene blue, hematoxylin and eosin, mucicarmine, alcian blue, and alcian blue/periodic acid-Schiff (PAS) reaction (Troyer, H., “Carbohydrates” in Principles and Techniques of Histochemistry, Little, Brown and Company, Boston, Mass., 1980: 89-121; Sheehan, D. C., et al., “Carbohydrates” in Theory and Practice of Histotechnology, Battle Press, Columbus, Ohio, 1980: 159-179). Mucin was stained with mucicarmine solution; metanil yellow counterstain was employed.
# Acidic mucin and sulfated mucosubstances were stained with alcian blue, pH 2.5; nuclear fast red counterstain was used. Neutral and acidic mucosubstances were identified by alcian blue. pH 2.5, and PAS reaction. The degree of mucus plugging of the airways (0.5-0.8 mm in diameter) was also assessed by morphometry. The percent occlusion of airway diameter by mucus was classified on a semiquantitative scale from 0 to 4+ as described in Figure Legends. The histologic and morphometric analyses were performed by individuals blinded to the protocol design. […]
substance,measurement,setting,value
f-Met-Leu-Phe-Phe (For-MLFF) [Example 9],Reduction of airway eosinophils over time course,"1-, 2- and 3-month groups, versus OVA","reduced eosinophils comparably at one month, but much more beneficially at two and three months"
same,% of plug of airway,28 days,19%
same,Mucus plug score in airways,"28 days, semiquantitative scale 0 to 4+",1.4
same,"Mucus accumulation / mucus release in the airway (histology, morphometry)","HK-X given before i.n. OVA, FIG. 6, listed as HK-X",inhibits mucus accumulation; also recorded: markedly reduced
same,Infiltration of the interstitial tissue by eosinophils (histology),"compared to OVA-challenge alone, FIG. 6C",also reduced
same,Formation of mucus plugs / mucus production in small airways,"doses of 5 μg/kg and 10 μg/kg, FIG. 7",Both doses significantly reduce the mucus production in small airways
